Assay results reported in patent US20240374546A1, “USES AND METHODS FOR PROMOTING INCREASED MITOCHONDRIAL MASS AND FUNCTION” (Brightseed, Inc., priority 2022, published 2024).
“Also recorded” adds a separate entry of the source.

Columns and labels:
HNF4α = molecular target: T1, HNF4α (Mus musculus, UniProt P49698); assay: Immunofluorescence of hepatic HNF4α in HFD mice; assay type: in vivo; details: oral NCT in HFD chow, 10 weeks
T1 construct: from tissue; host or cells: liver of C57BL/6J mice
Protocol: (§1) Frozen liver sections were permeabilized using 0.3% Triton-X and incubated in antigen retrieval solution (Antigen retrieval citrate, Biogenex) at sub-boiling temperature for 10 min. Subsequently, sections were incubated with blocking buffer containing 5% normal donkey serum (Jackson Immuno Research) followed by incubation overnight at 4° C. with mouse anti-HNF4α monoclonal antibody (1:800, Cat #PP-H1415-00, R&D Systems), rabbit polyclonal anti-VDAC antibody (1:400, cat #PA1-954A, Invitrogen) and cleaved caspase3 antibody (1:500, cat #9664, Cell Signaling). Sections were washed and incubated for 1 hour at room temperature with anti-mouse secondary antibody coupled with Alexa fluor 488 (1:400, Invitrogen) and antirabbit secondary antibody coupled with rhodamine red. Nuclei were visualized by counterstaining with DAPI (40,6-diamidino-2-phenylindole, Sigma Aldrich). Slides were mounted using fluorescence mounting medium and images were obtained at 40× magnification using an Olympus IX71 fluorescence microscope. Fluorescence intensity of HNF4α-stained nuclei and VDAC stained mitochondria was calculated using MetaMorph TL software (version 7.6.5.0, Olympus). Fold change was calculated by normalizing to values from mice fed NC.

citrate synthase = assay: Citrate synthase activity in liver homogenate; assay type: in vivo, mouse; details: HFD+NCT vs HFD
Protocol: Citrate synthase activity in liver homogenate was measured according to manufacturer's instructions using a calorimetry based MitoCheck Citrate Synthase Activity Assay Kit (Cat #701040, Cayman Chemicals, USA).

SDHA mRNA = assay: qPCR mouse liver, SDHA mRNA; assay type: in vivo; details: HFD+NCT vs HFD
Protocol: (§2) Total RNA was isolated from liver tissues and primary human hepatocytes using Trizol (Invitrogen). cDNA was amplified using 3 μg of total RNA using qScript cDNA SuperMix (Quanta BioSciences, Beverly, MA, USA). Quantitative real time PCR (RT-PCR) analysis was performed using SYBR® Select Master Mix (Applied Biosystems) and an ABI 7900HT thermal cycler (Applied Biosystems, Thermo Fisher Scientific). Ct values were normalized to 18s rRNA and are expressed as fold change over samples from mice fed NC or cultured human hepatocytes without NCT.

HSP60 mRNA = assay: qPCR mouse liver, HSP60 mRNA; assay type: in vivo; details: HFD+NCT vs HFD
Protocol: as §2

PPARGC1A mRNA [1] = assay: qPCR mouse liver, PPARGC1A mRNA; assay type: in vivo; details: ten weeks of oral NCT
Protocol: as §2

IL-6 mRNA = assay: qPCR mouse liver, IL-6 mRNA; assay type: in vivo; details: HFD+NCT vs HFD
Protocol: as §2

cytochrome C mRNA = assay: qPCR primary human hepatocytes, cytochrome C mRNA; assay type: cell-based; details: NCT 5, 15, 40 μM
Protocol: (§3) Experiments with primary human hepatocytes were performed by CN-Bio (Cambridge, UK). Briefly, primary human hepatocytes (PHHs), human Kupffer cells (HKs) and human stellate cells (HSCs) were seeded onto CN-Bio's PhysioMimix LC12 MPS culture plates at 6×10^5 cells for PHHs and 6×10^4 cells for HKs and HSCs in 1.6 ml of CN-Bio's HEP-lean media with 5% FCS. Throughout the experiment the cells were maintained at a flow rate of 1 μl/s. After 24 hours (Day 1) of seeding, the media was changed to HEP-lean media and the cells were incubated until day 4 to allow the cells to form microtissues. At day 4 post seeding, media was changed to HEP-fat media and treated with DMSO or NCT (5, 15, 40 μM). Media was replaced on days 6 and 8. Cells were harvested on day 10 for RNA extraction and culture media was collected for ELISA analysis.
as §2

PPARGC1A mRNA [2] = assay: qPCR primary human hepatocytes, PPARGC1A mRNA; assay type: cell-based; details: NCT 5, 15, 40 μM
Protocol: as §3, §2

IL-6 = assay: ELISA for IL-6 secreted into medium of primary human hepatocytes; assay type: cell-based; details: NCT 5, 15, 40 μM
Protocol: as §3

[3] = tested on: mitochondrial DNA (ND1, 16S rRNA); assay: Mitochondrial DNA analysis in mouse liver; assay type: in vivo; details: normalized with HK2
Protocol: Quantification of mtDNA was performed as described (BCurr Protoc Mouse Biol 2017; 7:47-54). Snap frozen mouse liver was homogenized and total cellular DNA was extracted with a QIAamp DNA kit (Qiagen) followed b PCR with the primers below: […]

[4] = Blood count analysis (Hemavet); assay type: in vivo, mouse; details: HFD versus HFD+NCT
Protocol: Mice were anesthetized and 20 μL of whole blood was collected via retro-orbital bleeding in lithium heparin blood collection tubes and 20 different hematologic parameters were measured using a Hemavet 950 FS blood count analyzer (Drew Scientific Group).

cleaved caspase3 = assay: Cleaved caspase3 immunostaining; assay type: in vivo, mouse; details: mice fed HFD with vs without NCT
Protocol: as §1, with “NC. […]” for “NC.”

Microsomal stability = assay type: in vitro ADME; details: human microsomes compared with rodent
palmitate-loaded cells = assay: Fat clearance from palmitate-loaded cells; assay type: cell-based; details: in vitro
[5] = Overall tolerability across studies (maximum tolerated dose, two-week IP, long term oral); assay type: in vivo; details: short-term maximum tolerated dose study, two-week IP 200 mg/kg bid, long term oral administration
Excerpt: Given the chronic nature of disorders of lipotoxicity, the lack of discernable toxicity of NCT is critical, but this will obviously require additional investigation in human clinical trials.

T1 sequence (P49698 whole entry): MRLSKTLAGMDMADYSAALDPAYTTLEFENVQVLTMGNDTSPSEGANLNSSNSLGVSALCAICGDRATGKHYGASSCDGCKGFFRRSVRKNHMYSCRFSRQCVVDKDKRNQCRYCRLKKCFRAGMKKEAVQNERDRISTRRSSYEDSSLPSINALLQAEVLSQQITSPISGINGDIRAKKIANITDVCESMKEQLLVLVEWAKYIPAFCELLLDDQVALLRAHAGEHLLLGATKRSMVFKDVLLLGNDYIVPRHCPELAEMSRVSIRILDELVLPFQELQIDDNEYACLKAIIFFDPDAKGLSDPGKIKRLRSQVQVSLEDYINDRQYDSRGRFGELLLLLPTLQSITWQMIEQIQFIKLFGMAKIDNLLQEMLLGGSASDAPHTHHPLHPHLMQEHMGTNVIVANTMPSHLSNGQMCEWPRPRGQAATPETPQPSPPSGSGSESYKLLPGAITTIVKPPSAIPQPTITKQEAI

O=C(/C=C/c1ccc(O)c(O)c1)NCCc1ccc(O)cc1 [NCT, N-transcaffeoyltyramine]
hepatic HNF4α expression (HFD-induced decrease) (HNF4α): reversed | citrate synthase activity (HFD-induced decrease) (citrate synthase): reversed; also recorded: substantial reversal | SDHA mRNA in mouse liver (SDHA mRNA): increased | HSP60 mRNA in mouse liver (HSP60 mRNA): greatly decreased | PPARGC1A mRNA in mouse liver (PPARGC1A mRNA [1]): increased | IL-6 mRNA in mouse liver (IL-6 mRNA): significantly reduced | cytochrome C mRNA in primary human hepatocytes (cytochrome C mRNA): but not cytochrome C | PPARGC1A mRNA in primary human hepatocytes (PPARGC1A mRNA [2]): increased | IL-6 protein secreted by cultured human hepatocytes (IL-6): reduced | mitochondrial DNA, 16S rRNA [3]: significant increase | mitochondrial DNA, ND1 [3]: significant increase | hematological analysis [4]: no difference | Caspase 3, marker of apoptosis (cleaved caspase3): no change | microsomal stability, human versus rodent microsomes (Microsomal stability): much more stable | fat clearance from palmitate-loaded cells (palmitate-loaded cells): induced fat clearance | deleterious effects / toxicity [5]: not seen any deleterious effects | body weight less than mice fed HFD (HFD+NCT (4000 ppm NCT in chow, approx. 400 mg/kg/d) vs HFD, end of experiment at 10 weeks): ~10 gm | week at which lower body weight became evident (HFD+NCT vs HFD): 5 week | difference in body weight (HFD+NCT vs HFD, 10 weeks): 35-40% | liver redness (HFD+NCT vs HFD, 10 weeks): redder livers | obesity (appearance) (HFD+NCT vs HFD, 10 weeks): markedly less obese | epididymal fat pad weight (HFD+NCT vs HFD, end of study, normalized to body weight): no change | liver weight (HFD+NCT vs HFD, normalized to body weight): lower liver weight | liver size (HFD+NCT vs HFD, photographs): reduction of liver size | physical activity or other behaviors (mouse, in vivo): no discernible difference
